Earlier results as cited in patent US20120004294A1, “ANTITUMOR COMBINATION COMBINING AVE8062 AND DOCETAXEL” (SANOFI, priority 2008, published 2012).

Details: AVE8062A alone, at too high a dose (weekly doses 4.5-30 mg/m^2 studied)

COc1ccc(/C=C\c2cc(OC)c(OC)c(OC)c2)cc1NC(=O)[C@@H](N)CO [AVE8062A]
Cardiotoxicity: cardiotoxicity was observed
